Assay results reported in patent US20250057793A1, “BENZOIC ACID SALTS FOR TREATMENT OF NERVOUS SYSTEM INJURIES AND DISORDERS” (The United States Government as represented by the …, priority 2021, published 2025).

What was measured:
[1] = system: mice with traumatic brain injury (TBI); assay: Remyelination in corpus callosum of mice with TBI (PLP/A2B5 double-labeling); assay type: in vivo, mouse; settings: 50 mg/kg body weight/day oral gavage
Procedure: FIG. 4 are images of the corpus collosum in mice showing the levels of proteolipid protein (PLP) and A2B5, a marker of oligodendroglial progenitor cells (OPC), in the experimental conditions after 21 days. Oral administration of sodium benzoate (NaB), but not sodium formate (NaFO), stimulates remyelination in mice with traumatic brain injury (TBI). Mice (n=6 per group) were induced moderate TBI by controlled cortical impact (CCI). Starting from 2 hours after TBI, mice were treated with NaB and NaFO (50 mg/kg body weight/day; mixed with water) orally via gavage. After 21 d of treatment, brain sections were double-labeled for PLP and A2B5.
Proteolipid protein (PLP) is a marker of oligodendrocytes and A2B5 is a marker of oligodendroglial progenitor cells (OPC). After 21 days of treatment, brain sections were double-labeled with antibodies against PLP and A2B5.

CCI-induced TBI mice [2] = assay: Lesion volume in CCI-induced mice (Cavalieri stereology); assay type: in vivo, mouse
Procedure: FIG. 5C is a plot showing lesion size in the experimental conditions. Lesion size was quantitatively measured in control mice, untreated CCI injured mice, NaB treated CCI-mice and NaFO-treated CCI-mice at 21 days post-injury. Statistical analyses were performed with Student's t-test in the injured side of the brain [^ap<0.001 (5.623×10^−7) vs control; ^bp<0.001 (=0.001) vs CCI injury].
FIGS. 10A-10C. Decrease in lesion volume in TBI mice by GTB treatment. […] FIG. 10A. […] FIG. 10C. Lesion volume was quantified in all groups of mice. Statistical analyses were performed with two way ANOVA and expressed as mean±SD to compare the lesion volume between unlesioned and lesioned side of the brain.
The estimation of lesion volume was performed based on the Cavalieri method of unbiased stereology using the StereoInvestigator software (MicroBright Biosciences, USA). Both the ipsilateral and contralateral hemisphere of brain volumes were determined using the Cavalieri estimator with a 1 mm grid spacing 1 mm. Every fourth section was analyzed beginning from a random start point. Lesion volume was estimated by subtracting the volume of the ipsilateral hemisphere from that of the contralateral hemi-sphere. Then the volume of lesion cavity estimated in brain section of untreated mice was compared with lesion volume of brain sections of drug treated mice.

CCI-injured mice [3] = assay: Rotarod test in CCI-injured mice; assay type: in vivo, mouse; settings: 50 mg/kg/day oral
Procedure: The forehindlimb motor coordination and balance in animals was observed using the rotarod test as described in earlier studies. Briefly, each mouse was placed on the confined section of the rod and trial was initiated with a smooth increase in speed from 4 rpm to 40 rpm for 5 mins. […] The latency to fall was measured in seconds and used for the analysis. Following the CCI injury, each mouse performed the task three trials during the testing sessions and the average score on these three trials was used as the individual rotarod score. Each trial on the rod was terminated when the mice fell off the rod or held on to the rod by hanging and completed improper revolutions.

CCI-injured mice [4] = assay: Grid runway in CCI-injured mice; assay type: in vivo, mouse; settings: 7 day post-injury, 50 mg/kg/day oral
From the text: The grid runway (65 cm length×8 cm breadth×1 cm intervals) made of parallel grid bars with interbar intervals of 1 cm apart and grid were kept above the surface on a table during the testing session. The soft padding was positioned under the grid run-way in the event for protection to avoid serious injury, if the animal falls from the grid. Each mouse was allowed to walk freely on grid and the time taken and number of steps to cross the runway was noted. Each successful foot placement on grid was recorded as a step. However, an error was considered whenever the paw slips through the grid or the paw misses a bar and extends downwards through the plane of bars. The locomotor behavior of animal on grid was evaluated by an observer blinded to the treatment on 7th and 21st day after CCI injury.

TBI mice = assay: Barnes maze test in TBI mice; assay type: in vivo, mouse; settings: NOR, Barnes maze and T maze, 21 days, 50 mg/kg/day oral
Procedure: The Barnes maze test was performed as described in our earlier studies. Briefly, the mice were initially trained for 2 consecutive days followed by examination on day 3. After each training session, maze and escape tunnel were thoroughly cleaned with a mild detergent to avoid instinctive odor avoidance due to mouse's odor from the familiar object. On day 3, a video camera (Basler Gen I Cam—Basler acA 1300-60) connected to a Noldus computer system was placed above the maze and was illuminated with high voltage light that generated enough light and heat to motivate animals to enter into the escape tunnel. The performance was monitored by the video tracking system (Noldus System). Cognitive behavior parameters were examined by measuring latency (duration before all four paws were on the floor of the escape box) and errors (incorrect response before all four paws were on the floor of the escape box).

[5] = system: oligodendroglial progenitor cells (OPCs); assay: Maturation of oligodendroglial progenitor cells (OPCs) into oligodendrocytes; assay type: cell-based, mouse; settings: 100 μM, 18 h, serum-free, absence of FGF and PDGF
Procedure: FIGS. 15A-15L: Effect of sodium benzoate (NaB) on the maturation of oligodendroglial progenitor cells (OPCs) into oligodendrocytes. OPCs were isolated from P1˜P2 neonatal mouse pups, cultured in OPC media for 4 days in vitro (DIV) followed by treatment with 100 μM NaB and sodium formate (NaFO) in the absence of FGF and PDGF.
FIG. 15A) After 18 h of 100 μM NaB treatment in serum-free condition, cells were fixed and then dual immuno-stained with MBP (red) and OPC marker NG2 (green). Nuclei were stained with DAPI (blue). FIG. 15B) Similarly, OPCs were stained with PLP (red) and A2B5 (green) under similar treatment condition. Quantification of MBP+(FIG. 15C), NG2+(FIG. 15D), PLP+(FIG. 15E), and A2B5+(FIG. 15F) cells as a percentage of total cells (DAPI+). Average 5 fields per slide, total 3 slides. Results are mean+SEM. ***p<0.001. FIG. 15G) For protein expression, cells were treated with different doses of NaB for 18 h under serum free condition and then immunoblotted with PLP and MOG. FIG. 15H) Densitometric analyses of the bands relative to beta actin were done for PLP and MOG. ^ap<0.001 vs. control PLP; ^bp<0.005 vs. control MOG. FIG. 151) Cells were treated with NaB (100 μM) and NaFO (100 μM) for 4 h under serum-free condition followed by monitoring the mRNA expression of myelin-specific genes by real-time PCR (ap<0.01 vs. control PLP; ^bp<0.01 vs. control MOG; cp<0.01 vs. control MBP; dp<0.01 vs. control CNPase). OPCs were cultured on the top of randomly-oriented polycaprolactone nanofibers (Nanofiber Solutions; Cat #Z694576) for 7 days. After that, these cells were treated with 100 μM NaB (FIG. 15J) and NaFO (K) for additional 2 days followed by immunofluorescence analysis for MBP (red) (FIG. 15J, control; FIG. 15K, NaB; FIG. 15L, NaFO). […] Representative 3D constructed images of OPCs adhered to nanofibers were also shown at the right side.

[6] = system: OPCs cultured on polycaprolactone nanofibers; assay: Myelination of synthetic polycaprolactone nanofibers by OPCs; assay type: cell-based, mouse; settings: 100 μM, 2 days after 7 days culture on nanofibers
Procedure: FIG. 15A) After 18 h of 100 μM NaB treatment in serum-free condition, cells were fixed and then dual immuno-stained with MBP (red) and OPC marker NG2 (green). Nuclei were stained with DAPI (blue). FIG. 15B) Similarly, OPCs were stained with PLP (red) and A2B5 (green) under similar treatment condition. Quantification of MBP+(FIG. 15C), NG2+(FIG. 15D), PLP+(FIG. 15E), and A2B5+(FIG. 15F) cells as a percentage of total cells (DAPI+). Average 5 fields per slide, total 3 slides. Results are mean+SEM. ***p<0.001. FIG. 15G) For protein expression, cells were treated with different doses of NaB for 18 h under serum free condition and then immunoblotted with PLP and MOG. FIG. 15H) Densitometric analyses of the bands relative to beta actin were done for PLP and MOG. ^ap<0.001 vs. control PLP; ^bp<0.005 vs. control MOG. FIG. 151) Cells were treated with NaB (100 μM) and NaFO (100 μM) for 4 h under serum-free condition followed by monitoring the mRNA expression of myelin-specific genes by real-time PCR (ap<0.01 vs. control PLP; ^bp<0.01 vs. control MOG; cp<0.01 vs. control MBP; dp<0.01 vs. control CNPase). OPCs were cultured on the top of randomly-oriented polycaprolactone nanofibers (Nanofiber Solutions; Cat #Z694576) for 7 days. […]

CCI-induced TBI mice [7] = assay: Glial activation and iNOS in brain of CCI-induced TBI mice (immunofluorescence, Western blot); settings: cortex and hippocampus
[8] = system: mouse RAW 264.7 macrophages; assay: NO production from stimulated RAW 264.7 macrophages (nitrite, Griess reagent); assay type: cell-based; settings: cinnamein pretreatment 6 h, serum-free, 24 h; for LPS-induced production of NO (nitrite): 1 μg/ml LPS; for IFNγ-induced production of NO (nitrite): 25 U/ml IFNγ
Procedure: FIGS. 18A-18C. Cinnamein inhibits the induction of NO production from LPS- and IFNγ-stimulated mouse RAW 264.7 macrophages. FIG. 18A) Cells preincubated with different concentrations of cinnamein for 6 h were stimulated with 1 μg/ml LPS under serum-free condition. After 24 h of stimulation, the level of nitrite was measured in supernatants by Griess reagent. FIG. 18B) Cells preincubated with 400 μM cinnamein for different hours were stimulated with 1 μg/ml LPS under serum-free condition. After 24 h of stimulation, the level of nitrite was measured in supernatants. FIG. 18C) Cells preincubated with different concentrations of cinnamein for 6 h were stimulated with 25 U/ml IFNγ under serum-free condition. After 24 h of stimulation, the level of nitrite was measured in supernatants. Results are mean+SD of three independent experiments. *p<0.05; **p<0.01; ***p<0.001; NS, not significant.

primary mouse microglia = assay: Proinflammatory cytokine production in primary mouse microglia (ELISA); assay type: cell-based; settings: cinnamein 6 h, serum-free, 24 h
Procedure: FIGS. 19A-19B. Cinnamein inhibits LPS- and polyIC-induced production of TNFα in primary mouse microglia. Microglia isolated from 2d old mouse pups were incubated with different concentrations of cinnamein for 6 h followed by stimulation with either 1 μg/ml LPS (FIG. 19A) or 50 μg/ml polyIC (FIG. 19B) under serum-free condition. After 24 h of stimulation, the level of TNFα was measured in supernatants by ELISA. Results are mean+SD of three independent experiments. *p<0.05; **p<0.01; ***p<0.001; NS, not significant.
FIGS. 20A-20B. Cinnamein suppresses the production of IL-1j3 from LPS- and poly IC-stimulated primary mouse microglia. Cells preincubated with different concentrations of cinnamein for 6 h were stimulated with either 1 μg/ml LPS (FIG. 20A) or 50 μg/ml polyIC (FIG. 20B) under serum-free condition. After 24 h of stimulation, the level of […] was measured in supernatants by ELISA. Results are mean+SD of three independent experiments. ***p<0.001.
FIGS. 21A-21B. Cinnamein decreases LPS- and polyIC-induced production of IL-6 in primary mouse microglia. Microglia were incubated with different concentrations of cinnamein for 6 h followed by stimulation with either 1 μg/ml LPS (FIG. 21A) or 50 μg/ml polyIC (FIG. 21B) under serum-free condition. After 24 h of stimulation, the level of IL-6 was measured in supernatants by ELISA. Results are mean+SD of three independent experiments. ***p<0.001.

primary mouse astrocytes = assay: Proinflammatory cytokine production in primary mouse astrocytes (ELISA); assay type: cell-based; settings: cinnamein 6 h, 50 μg/ml poly IC, serum-free, 24 h
Procedure: FIGS. 22A-22B. Cinnamein inhibits the production of proinflammatory cytokines from polyIC-stimulated primary mouse astrocytes. Astrocytes preincubated with different concentrations of cinnamein for 6 h were stimulated with 50 μg/ml poly IC under serum-free condition. After 24 h of stimulation, levels of TNFα (FIG. 22A) and IL-6 (FIG. 22B) were measured in supernatants by ELISA. Results are mean+SD of three independent experiments. *p<0.05; **p<0.01; ***p<0.001.

[9] = day 7 post-injury, 50 mg/kg/day oral from 24 h after CCI
[10] = 1 μg/ml LPS, listed as Cinnamein
[11] = 50 μg/ml polyIC, listed as Cinnamein

SMILES: O=C[O-].[Na+] [NaFO, sodium formate]
- level of PLP in corpus callosum ([1]; 21 days of treatment): remained unable to restore
- number of OPCs (A2B5 positive) in corpus callosum ([1]; 21 days of treatment): remained unable
- remyelination ([1]; 21 d of treatment): not
- total lesion volume / size of lesion cavity (CCI-induced TBI mice [2]; cresyl violet sections, 21 days post-injury, 50 mg/kg/day oral): not
- structural-tissue integrity of damaged hippocampus (CCI-induced TBI mice [2]; oral treatment started 24 h after CCI): remained unable to exhibit such protection
- latency to fall on rotarod (CCI-injured mice [3]; 7 day post-injury): not
- latency to fall on rotarod (CCI-injured mice [3]; 21 day post-injury): not
- gait movement on grid runway (steps, time taken, foot misplacement) (CCI-injured mice [4]): not
- hippocampus-dependent behaviors / cognitive performance (TBI mice): remained unable to improve
- differentiation/maturation of OPCs into oligodendrocytes (MBP+, PLP+, NG2+, A2B5+ cells) [5]: did not promote
- myelination of synthetic fibers (MBP immunofluorescence) [6]: not
- iNOS / iNOS-positive cells (CCI-induced TBI mice [7]; day 7, 50 mg/kg/day oral): not
- GFAP-positive astrocytes (CCI-induced TBI mice [7]; [9]): remained unable to inhibit glial activation
- Iba1-positive microglia (CCI-induced TBI mice [7]; [9]): remained unable to inhibit glial activation

SMILES: O=C(/C=C/c1ccccc1)OCc1ccccc1 [cinnamein, Cinnamein]
- LPS-induced production of NO (nitrite) [8]: significantly inhibited
- LPS-induced production of NO (nitrite) ([8]; listed as Cinnamein): inhibits
- IFNγ-induced production of NO (nitrite) [8]: significantly inhibited
- IFNγ-induced production of NO (nitrite) ([8]; listed as Cinnamein): inhibits
- LPS-induced production of IL-6 (primary mouse microglia; 1 μg/ml LPS): strongly inhibited
- LPS-induced production of TNFα (primary mouse microglia; 1 μg/ml LPS): strongly inhibited
- production of IL-1β (primary mouse microglia; 1 μg/ml LPS): strongly inhibited
- LPS-induced production of IL-6 (primary mouse microglia; [10]): decreases
- LPS-induced production of TNFα (primary mouse microglia; [10]): inhibits
- production of IL-1β (primary mouse microglia; [10]): suppresses
- polyIC-induced production of IL-6 (primary mouse microglia; 50 μg/ml polyIC): strongly inhibited
- polyIC-induced production of TNFα (primary mouse microglia; 50 μg/ml polyIC): strongly inhibited
- production of IL-1β (primary mouse microglia; 50 μg/ml polyIC): strongly inhibited
- polyIC-induced production of IL-6 (primary mouse microglia; [11]): decreases
- polyIC-induced production of TNFα (primary mouse microglia; [11]): inhibits
- production of IL-1β (primary mouse microglia; [11]): suppresses
- polyIC-induced production of IL-6 (primary mouse astrocytes): inhibited
- polyIC-induced production of TNFα (primary mouse astrocytes): inhibited
- polyIC-induced production of IL-6 (primary mouse astrocytes; listed as Cinnamein): inhibits
- polyIC-induced production of TNFα (primary mouse astrocytes; listed as Cinnamein): inhibits
